Activity calls are given as the source filed them.
Assays:
[1] = target: T1, Small ubiquitin-related modifier 1 (Homo sapiens, UniProt P63165); test: inhibitors of SUMO1 partner interactions, dose response, biochemical, FRET (AID 624383); type: functional; conditions: read-out: IC50_Mean
[2] = system: Streptococcus; test: Group A Streptococcus viability loss, dose response, counter-screen for streptokinase expression inhibitor project, luminescence, BacTiterGlo (AID 1915); type: functional, organism-based;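 further: potency for reduction of bacterial viability or growth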
[3] = target: T2, Small ubiquitin-related modifier 2 (Homo sapiens, UniProt P61956); test: SUMO2–SIM peptide binding inhibitors, dose response, selectivity assay for SUMO1 interaction inhibitor project, biochemical, fluorescence polarization, uHTS hits (AID 624385); type: functional; conditions: read-out: IC50_Mean
[4] = HEp-2 cell cytotoxicity, dose response, cytotoxicity control for RSV inhibitor project, HTS (AID 2410); type: functional; conditions: human respiratory syncytial virus
[5] = target: T3, Streptokinase A (Streptococcus pyogenes serotype M1, UniProt P10520); test: S. pyogenes streptokinase expression inhibitors, potency, dose response, plasminogen activation absorbance, OD405 (AID 1914); type: functional, Streptococcus pyogenes M1 GAS;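 further: secreted streptokinase activity via plasminogen activation per viability signal from cell pellet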
T3 sequence (P10520 whole entry): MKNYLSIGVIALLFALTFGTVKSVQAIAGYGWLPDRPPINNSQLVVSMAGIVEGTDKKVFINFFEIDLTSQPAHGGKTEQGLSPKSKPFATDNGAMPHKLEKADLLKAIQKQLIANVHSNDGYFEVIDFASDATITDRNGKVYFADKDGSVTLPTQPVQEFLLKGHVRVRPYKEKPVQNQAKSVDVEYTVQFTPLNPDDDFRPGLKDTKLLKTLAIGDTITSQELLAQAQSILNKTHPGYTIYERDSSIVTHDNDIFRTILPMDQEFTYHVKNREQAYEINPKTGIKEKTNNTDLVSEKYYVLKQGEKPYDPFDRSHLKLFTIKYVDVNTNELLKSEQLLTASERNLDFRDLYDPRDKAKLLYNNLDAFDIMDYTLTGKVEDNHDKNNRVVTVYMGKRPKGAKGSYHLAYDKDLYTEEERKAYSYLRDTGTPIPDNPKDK

[6] = target: Induced myeloid leukemia cell differentiation protein Mcl-1 (Homo sapiens, UniProt Q07820); type: functional
[7] = target: T2, Small ubiquitin-related modifier 2; test: inhibitors of SUMO2 protein-protein interaction, dose response, selectivity assay for SUMO1 interaction inhibitor project, biochemical, FRET, human SUMO2, uHTS hits (AID 624384); type: functional; conditions: read-out: IC50_Mean
[8] = system: Streptococcus sp. 'group A'; test: growth inhibition of control SK(-) GAS strain, dose response, counter-screen for streptokinase expression inhibitor project, luminescence, kanamycin, BacTiterGlo, confirmation (AID 1900); type: functional, organism-based
[9] = target: T1, Small ubiquitin-related modifier 1; test: inhibitors of SUMO1 peptide binding, dose response, biochemical, fluorescence polarization, uHTS hits (AID 624382); type: functional; conditions: read-out: IC50_Mean
[10] = inhibitors of TNFa-stimulated NF-kB luciferase reporter, dose response, selectivity assay for EBV LMP1 NF-kB inhibitor project, HEK293 LMP1 reporter cells, dry powder, set 2 (AID 624369); type: functional
[11] = miR-122 activators in hepatoma reporter cells, dose response, cell-based, Huh7 psiCHECK-miR122, Renilla luciferase, cherry-picked (AID 651956); type: functional;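 further: huh7 hepatoma cells stably carrying a psiCHECK-2 miR-122 sensor plasmid; renilla luciferase signal reporting endogenous miR-122 activity after 48 h compound exposure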
[12] = target: Protein S100-A4 (Homo sapiens, UniProt P26447); test: S100A4-myosin IIA binding inhibitor potency, dose response, biochemical, fluorescence polarization, cherry-picked hits (AID 687001); type: functional
[13] = target: Troponin, cardiac muscle (Homo sapiens, UniProt P19429+P45379+P63316); test: Fluorescence-based biochemical high throughput dose response assay for activators of the calcium sensitivity of cardiac Regulated Thin Filaments (RTF). [Related pubchem assays (depositor defined):AID493008, AID493018, AID504382, AID504383]; type: protein-complex assay
[14] = target: T4, Corticotropin-releasing factor receptor 2/Corticotropin-releasing factor-binding protein (Homo sapiens, UniProt P24387+Q13324); test: activators of CRF receptor 2 with binding protein – uHTS hits, confirmation (AID 602473); type: functional; conditions: read-out: EC50_Mean
T4 sequence (Q13324 whole entry): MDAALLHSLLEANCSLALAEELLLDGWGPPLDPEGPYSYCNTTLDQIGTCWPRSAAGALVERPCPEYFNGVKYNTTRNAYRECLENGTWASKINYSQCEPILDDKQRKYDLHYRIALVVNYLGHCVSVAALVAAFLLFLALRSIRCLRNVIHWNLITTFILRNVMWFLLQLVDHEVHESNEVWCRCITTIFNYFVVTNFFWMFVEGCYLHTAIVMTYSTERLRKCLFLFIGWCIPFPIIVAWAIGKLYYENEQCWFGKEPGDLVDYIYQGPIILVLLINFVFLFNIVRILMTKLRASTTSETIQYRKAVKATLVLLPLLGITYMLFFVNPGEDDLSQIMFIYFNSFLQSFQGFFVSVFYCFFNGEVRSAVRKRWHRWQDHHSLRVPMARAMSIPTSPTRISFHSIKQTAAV
T4 sequence (P24387 whole entry): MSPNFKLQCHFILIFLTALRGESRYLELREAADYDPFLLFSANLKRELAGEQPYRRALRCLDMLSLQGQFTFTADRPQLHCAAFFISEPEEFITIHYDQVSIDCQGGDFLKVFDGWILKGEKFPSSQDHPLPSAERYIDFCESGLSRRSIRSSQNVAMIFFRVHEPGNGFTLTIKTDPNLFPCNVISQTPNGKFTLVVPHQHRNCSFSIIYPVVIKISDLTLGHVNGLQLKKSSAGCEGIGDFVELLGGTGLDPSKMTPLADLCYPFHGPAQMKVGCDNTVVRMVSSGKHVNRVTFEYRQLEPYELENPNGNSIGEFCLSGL

[15] = target: T4, Corticotropin-releasing factor receptor 2/Corticotropin-releasing factor-binding protein; test: Dose Response confirmation of uHTS hits for small molecule antagonists of the CRF-binding protein and CRF-R2 receptor complex.; type: functional; conditions: read-out: IC50_Mean
[16] = microbe, parasite or virus in culture; type: functional; conditions: Mycobacterium tuberculosis
[17] = CRF-BP/CRF-R2 complex antagonists, dose response, cell-based, uHTS hits, 384-well (AID 651639); type: functional, Homo sapiens; conditions: read-out: IC50_Mean
[18] = system: Vero; test: Vero cell toxicity, dose response, cytotoxicity control, plate reader, cherry-pick samples (AID 687020); type: functional, cell-based; conditions: Chlorocebus sabaeus
[19] = target: Histone-lysine N-methyltransferase NSD2 (Homo sapiens, UniProt O96028); type: biochemical
[20] = target: Apoptotic protease-activating factor 1 (Homo sapiens, UniProt O14727); type: functional
[21] = target: T5, Sentrin-specific protease 8 (Homo sapiens, UniProt Q96LD8); type: functional
T5 sequence (Q96LD8 whole entry): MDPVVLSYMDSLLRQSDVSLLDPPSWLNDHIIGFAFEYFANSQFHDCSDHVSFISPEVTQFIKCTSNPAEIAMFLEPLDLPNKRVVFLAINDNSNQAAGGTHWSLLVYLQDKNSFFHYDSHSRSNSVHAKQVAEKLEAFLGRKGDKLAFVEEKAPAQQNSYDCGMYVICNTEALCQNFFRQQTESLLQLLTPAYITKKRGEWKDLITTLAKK

[22] = target: T5, Sentrin-specific protease 8; type: functional; remark: listed apart in the source
[23] = target: Photoreceptor-specific nuclear receptor (Homo sapiens, UniProt Q9Y5X4); type: functional, cell-based;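 further: CHO-S cells with Gal4-NCOR and VP16-NR2E3 two-hybrid luciferase reporter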
[24] = inhibitors of intracellular T. cruzi replication, confirmation, NIH3T3 host cells, beta-gal luminescence (AID 2044); type: functional, cell-based;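 further: intracellular parasites grown in NIH/3T3 mouse fibroblasts as host cells; luminescent beta-galactosidase reporter signal from transgenic T. cruzi replicating inside host cells; inhibitors lower the luminescence signal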
[25] = cytotoxicity toward NIH3T3 fibroblasts, dose response, counter-screen, cell-based, ATP luminescence, mouse fibroblasts (AID 2010); type: functional;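 further: cells exposed to compound for about 90 hours before reading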
[26] = target: T6, Methionyl-tRNA synthetase, putative (Trypanosoma brucei brucei, UniProt Q38C91); type: functional, Trypanosoma brucei brucei strain 927/4 GUTat10.1
[27] = Counterscreen for inhibitors of Trypanosoma brucei methionyl tRNA synthetase (MetRS): Luminescence-based cell-based high throughput dose response assay to identify compounds that are cytotoxic to Jurkat human T lymphocyte cells.; type: functional
[28] = target: T6, Methionyl-tRNA synthetase, putative; type: functional, Trypanosoma brucei brucei strain 927/4 GUTat10.1; remark: listed apart in the source
[29] = system: HeLa; test: HeLa cell cytotoxicity, dose response, cytotoxicity control for MITF activator project, CellTiter-Glo luminescence, cherry-pick samples (AID 540259); type: functional, cell-based; conditions: Homo sapiens
[30] = target: T7, Coagulation factor XII (Homo sapiens, UniProt P00748); type: functional;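 further: activated factor XIIa alpha cleaving a fluorogenic AMC peptide substrate; inhibitor potency from loss of enzyme activity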
T7 sequence (P00748 whole entry): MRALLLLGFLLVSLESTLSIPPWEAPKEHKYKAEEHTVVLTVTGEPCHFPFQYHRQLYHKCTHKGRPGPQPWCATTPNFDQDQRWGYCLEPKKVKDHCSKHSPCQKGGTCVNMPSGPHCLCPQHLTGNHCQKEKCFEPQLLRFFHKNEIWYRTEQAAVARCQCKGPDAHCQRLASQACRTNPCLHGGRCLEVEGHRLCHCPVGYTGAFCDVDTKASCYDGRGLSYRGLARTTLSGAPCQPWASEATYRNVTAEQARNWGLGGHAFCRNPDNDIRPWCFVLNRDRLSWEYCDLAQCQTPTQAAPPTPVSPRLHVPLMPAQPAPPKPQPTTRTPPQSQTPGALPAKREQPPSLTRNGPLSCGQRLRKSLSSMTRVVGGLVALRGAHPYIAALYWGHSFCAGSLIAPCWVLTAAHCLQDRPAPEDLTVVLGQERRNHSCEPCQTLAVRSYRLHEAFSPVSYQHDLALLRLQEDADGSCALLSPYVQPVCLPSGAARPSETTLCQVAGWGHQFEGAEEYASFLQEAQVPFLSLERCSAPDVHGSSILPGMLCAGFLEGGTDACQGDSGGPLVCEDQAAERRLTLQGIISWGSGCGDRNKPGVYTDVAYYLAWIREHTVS

[31] = T. cruzi intracellular amastigote growth inhibition, dose response, imaging, CA-I/72 strain, bovine embryo skeletal muscle, dry powder (AID 651885); type: functional, cell-based
[32] = T. cruzi growth inhibition in host cells, dose response, cell-based, plate reader, dry powder, set 2 (AID 652275); type: functional
[33] = system: BHK-21; test: BHK-21 cell toxicity, dose response, cytotoxicity control, plate reader, cherry-pick samples (AID 687030); type: functional, cell-based; conditions: Mesocricetus auratus
[34] = target: SWI/SNF-related matrix-associated actin-dependent regulator of chromatin subfamily A member 2 (Homo sapiens, UniProt P51531); test: Luminescence-based cell-based high throughput dose response assay to identify activators of the function of SWI/SNF related, matrix associated, actin dependent regulator of chromatin, subfamily a, member 2 (SMARCA2, BRM).; type: functional
[35] = Counterscreen for activators of the function of SWI/SNF related, matrix associated, actin dependent regulator of chromatin, subfamily a, member 2 (SMARCA2, BRM): Luminescence-based cell-based high throughput dose response assay to identify non-selective compounds using the VP16 reporter assay.; type: functional
[36] = target: FAD-linked sulfhydryl oxidase ALR (Homo sapiens, UniProt P55789); test: inhibitors of human ALR sulfhydryl oxidase, dose response, biochemical, H2O2 detection, luminescence, cherry-pick (AID 493248)
[37] = HEK293 cell viability, dose response, counter-screen for EBV LMP1 inhibitor project, dry powder, set 2 (AID 624374); type: functional

## COc1ccc(O)c(C(=O)c2cc(SCC(=O)O)c3nc4sc5c(c4c(=O)n3c2)CCCC5)c1
[1]
  IC50: 51.6 µM (inactive)
[2]
  EC50: 18.5 µM (inconclusive)
[3]
  IC50: 6.24 µM (active)
[4]
  CC50: 29.1 µM (active)
[5]
  EC50: 16.4 µM (inconclusive)
[6]
  IC50: 1.49 µM (active)
[7]
  IC50: 46.2 µM (inactive)
[8]
  EC50: 2.67 µM (active)
[9]
  IC50: 2.14 µM (active)

## C[C@H]1CN([C@@H](C)CO)C(=O)c2cc(C#Cc3ccccc3F)cnc2O[C@@H]1CN(C)C(=O)C1CCCCC1
[10]
  AbsAC35: 66.69 µM
[11]
  AC50: 0.565 µM (active)

## Cc1ccc(N2C3=C(C(=O)CC(C)(C)C3)C(c3cn(C)nc3C)C3=C2CC(C)(C)CC3=O)cc1
[12]
  AC50: 2.04 µM (active)
[13]
  EC50: 6.28 µM (active)

## Cc1cccc(N(C(=O)c2nsc(Cl)c2Cl)C(C(=O)NC2CCCC2)c2ccc(O)cc2)c1C (stereo not given)
[14]
  EC50: > 53 µM (inactive)
[15]
  IC50: 6.4 µM (active)
[16]
  CC50: 39 µM (active)
[17]
  IC50: > 20 µM (inactive)

## COc1ccc(CC(=O)NCC2CCCN(Cc3ccc(OC(F)(F)F)cc3)C2)cc1 (stereo not given)
[18]
  AC50: 17.1 µM (active)

## O=C1C(Cl)=C(NCCN2CCOCC2)C(=O)c2ccccc21
[19]
  AC50: 10.8 µM (active)
[20]
  IC50: 22 µM (active)

## CC(NC(=O)COC(=O)c1ccc([N+](=O)[O-])o1)c1ccccc1 (stereo not given)
[21]
  IC50: 11.8 µM (active)
[22]
  IC50: 7.54 µM (active)

## CCc1nnc(NC(=O)c2ccc(S(=O)(=O)N3CCCc4ccccc43)cc2)o1
[2]
  EC50: 13.3 µM (active)
[23]
  IC50: 4.33 µM (active)
[24]
  EC50: 2.19 µM (active)
[5]
  EC50: > 150 µM (not active)
[25]
  EC50: 5.54 µM (active)
[8]
  EC50: 1.21 µM (active)

## O=C(Cn1c(/C=C/c2ccccc2)nc2ccccc21)Nc1ccc(F)cc1
[26]
  IC50: 8.74 µM (active)
[27]
  IC50: 83.3 µM (inactive)
[28]
  IC50: 12.2 µM (inactive)
[29]
  AC50: 301 µM (active)
[30]
  IC50: > 50 µM (inactive)

## C[C@@H]1CN([C@@H](C)CO)C(=O)c2cccc(NC(=O)c3cnccn3)c2O[C@H]1CN(C)Cc1ccc(Oc2ccccc2)cc1
[31]
  IC50: > 20 µM (inactive)
[32]
  AC50: 1.96 µM (active)

## NNC(=O)c1ccc(-c2ccccc2F)cc1
[33]
  AC50: 19.3 µM (active)

## COc1ccc(-n2nnnc2S(=O)(=O)Cc2ccc(C(=O)O)cc2)cc1
[34]
  EC50: > 91.2 µM (inactive)
[35]
  EC50: > 91.2 µM (inactive)
[36]
  AC50: 0.038 µM (active)

## Cc1noc(C)c1S(=O)(=O)Nc1ccc2c(c1)C(=O)N([C@@H](C)CO)C[C@H](C)[C@H](CN(C)Cc1ccc(C(F)(F)F)cc1)OCCCC[C@H](C)O2
[37]
  AbsAC35: 149.08 µM

Reference: ChEMBL document CHEMBL1201862, “PubChem BioAssay data set” (2004)
